From patent publication US20120214862A1, “MODULATION OF FACTOR 7 EXPRESSION” (ISIS Pharmaceuticals, Inc., priority 2009, published 2012)
In the oligonucleotide strings, read from the 5' end, every base follows the letter of its sugar. An asterisk marks phosphorothioate; unmarked linkages are phosphodiester. Other units and linkages are bracketed, terminal groups are in braces. A string of capitals states the bases alone. e = 2'-O-(2-methoxyethyl) (MOE); [5mC] = 5-methylcytosine; d = 2'-deoxy (DNA)

Test system: human Factor 7 mRNA
Test: Antisense inhibition of human Factor 7 mRNA in HepB3 cells, lipofectin, 50 nM, real-time RT-PCR
Format: cell-based
Conditions: for % Inhibition (human Factor 7 mRNA): 50 nM, ~24 h
How it was run: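 HepB3 cells were transfected by lipofectin with 50 nM antisense oligonucleotide and harvested after about 24 h. Factor 7 mRNA was measured by real-time RT-PCR (primer probe set RTS 2927 in some runs), normalized to RIBOGREEN total RNA, and reported as percent inhibition versus untreated control.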

[1] = HepB3 cells, gapmers targeted to nucleobases 13760 to 13789 of SEQ ID NO: 1 (Table 10)
[2] = HepB3 cells, gapmers targeted to nucleobases 11830 to 11869 of SEQ ID NO: 1 (Table 9)
[3] = HepB3 cells, gapmers (5-10-5, 3-14-3, 2-13-5 MOE) targeted to nucleobases 4868 to 4899 of SEQ ID NO: 1
[4] = Example 1, HepB3 cells, lipofectin, relative to untreated control cells
[5] = HepB3 cells, lipofectin, 50 nM antisense oligonucleotide, approximately 24 hours, primer probe set RTS 2927, relative to untreated control
[6] = Example 4, HepB3 cells, lipofectin, relative to untreated control

422254 (antisense e[5mC]*e[5mC]*d[5mC]*dG*d[5mC]*d[5mC]*dG*dG*d[5mC]*dT*d[5mC]*dT*dG*d[5mC]*dT*e[5mC]*eA*eT*e[5mC]*e[5mC]) [compound 422254]
% Inhibition of human Factor 7 mRNA levels [1]: 42%

422105 (antisense eT*eG*eG*e[5mC]*eT*dG*dA*dG*dG*dA*dG*dA*d[5mC]*dA*dA*eT*eG*eG*eT*e[5mC]) [compound 422105]
% Inhibition of human Factor 7 mRNA levels [2]: 60%

422213 (antisense eT*e[5mC]*eT*dG*d[5mC]*dA*dG*dG*dA*dG*d[5mC]*dG*dG*d[5mC]*d[5mC]*dT*dA*eA*eA*eT) [compound 422213]
% Inhibition of human Factor 7 mRNA levels [3]: 67%

407929 (antisense eG*e[5mC]*eA*eG*eA*dG*d[5mC]*dA*dG*d[5mC]*dA*dG*d[5mC]*d[5mC]*dT*eG*eA*eG*eG*e[5mC]) [compound 407929]
% Inhibition (human Factor 7 mRNA) [4]: 53%

422226 (antisense e[5mC]*eA*dT*dG*dG*dT*dG*dA*dT*dG*d[5mC]*dT*dT*d[5mC]*dT*eG*eA*eA*eT*eT) [compound 422226]
% Inhibition of human Factor 7 mRNA levels (HepB3 cells, gapmers targeted to nucleobases 15188 to 15211 of SEQ ID NO: 1 (Table 13)): 41%

407889 (antisense eT*e[5mC]*e[5mC]*eT*eG*dG*dG*dT*dT*dA*d[5mC]*dG*dA*dA*dG*eA*e[5mC]*eT*eG*e[5mC]) [compound 407889]
% Inhibition (human Factor 7 mRNA) [4]: 54%

416509 (antisense eA*eG*eG*eA*eG*d[5mC]*d[5mC]*d[5mC]*dG*dA*dG*dT*dT*d[5mC]*dT*eG*e[5mC]*eA*eG*eG) [compound 416509]
% Inhibition of human Factor 7 mRNA levels [5]: 56% | % Inhibition of human Factor 7 mRNA levels [3]: 60%

422101 (antisense eT*eG*eA*eG*eG*dA*dG*dA*d[5mC]*dA*dA*dT*dG*dG*dT*e[5mC]*eA*eG*eG*eG) [compound 422101]
% Inhibition of human Factor 7 mRNA levels [2]: 42%

416515 (antisense eT*eA*eG*eG*e[5mC]*dA*dT*dG*dA*d[5mC]*d[5mC]*dA*dT*d[5mC]*d[5mC]*eT*e[5mC]*eA*eA*eT) [compound 416515]
% Inhibition of human Factor 7 mRNA levels [5]: 39%

416502 (antisense eG*eT*eT*e[5mC]*eT*dT*dT*dG*dA*dA*dA*dA*dA*dT*dA*eA*eT*e[5mC]*e[5mC]*e[5mC]) [compound 416502]
% Inhibition of human Factor 7 mRNA levels [5]: 22%

416545 (antisense eA*eG*eA*eA*eA*d[5mC]*dA*dT*d[5mC]*d[5mC]*d[5mC]*dA*dT*dT*dT*eT*e[5mC]*e[5mC]*e[5mC]*eA) [compound 416545]
% Inhibition of human Factor 7 mRNA levels [5]: 8%

407905 (antisense e[5mC]*e[5mC]*eA*eG*eT*dT*d[5mC]*dT*dT*dG*dA*dT*dT*dT*dT*eG*eT*e[5mC]*eG*eA) [compound 407905]
% Inhibition (human Factor 7 mRNA) [4]: 40%

416553 (antisense eG*eG*eT*eT*e[5mC]*dT*d[5mC]*dT*dG*d[5mC]*dA*d[5mC]*dA*dG*dG*eG*eT*eA*eG*eA) [compound 416553]
% Inhibition of human Factor 7 mRNA levels [5]: 56%

407926 (antisense e[5mC]*e[5mC]*eA*eG*eG*dA*d[5mC]*dA*dA*d[5mC]*d[5mC]*dT*dT*dG*dG*e[5mC]*eA*e[5mC]*eT*e[5mC]) [compound 407926]
% Inhibition (human Factor 7 mRNA) [4]: 79%

422266 (antisense e[5mC]*eG*d[5mC]*dG*dG*dA*dA*dG*dA*dA*dG*dG*dG*dA*d[5mC]*eG*eG*eA*eA*eG) [compound 422266]
% Inhibition (human Factor 7 mRNA) [6]: 13%

407652 (antisense eT*eG*eG*eG*eA*dG*d[5mC]*dT*dA*d[5mC]*dA*dG*d[5mC]*d[5mC]*dT*e[5mC]*eA*eA*eA*e[5mC]) [compound 407652]
% Inhibition (human Factor 7 mRNA) [4]: 30%

407933 (antisense eT*eG*eA*eT*eA*dA*dT*dG*dG*dA*dT*dA*dA*dG*dA*eA*e[5mC]*e[5mC]*eA*eG) [compound 407933]
% Inhibition (human Factor 7 mRNA) [4]: 58%

407623 (antisense eT*e[5mC]*e[5mC]*eA*eT*dT*d[5mC]*dA*d[5mC]*d[5mC]*dA*dA*d[5mC]*dA*dA*e[5mC]*eA*eG*eG*eA) [compound 407623]
% Inhibition (human Factor 7 mRNA) [4]: 69%

422091 (antisense eT*eG*eG*eT*e[5mC]*dA*dG*dG*dG*d[5mC]*dT*dG*dG*dT*dT*eT*eT*eG*eG*eA) [compound 422091]
% Inhibition of human Factor 7 mRNA levels [2]: 42%

422088 (antisense eT*e[5mC]*eA*eG*eG*dG*d[5mC]*dT*dG*dG*dT*dT*dT*dT*dG*eG*eA*eG*eG*eA) [compound 422088]
% Inhibition of human Factor 7 mRNA levels [2]: 8%

416463 (antisense eT*eG*e[5mC]*eT*eG*d[5mC]*dA*dG*dG*d[5mC]*dA*dG*dT*d[5mC]*d[5mC]*eT*eG*eG*eG*eT) [compound 416463]
% Inhibition of human Factor 7 mRNA levels [5]: 39%

407915 (antisense eG*eT*eT*eG*e[5mC]*dG*d[5mC]*dA*dG*d[5mC]*d[5mC]*d[5mC]*dT*dG*dG*e[5mC]*e[5mC]*e[5mC]*e[5mC]*eA) [compound 407915]
% Inhibition (human Factor 7 mRNA) [4]: 83%

422257 (antisense e[5mC]*e[5mC]*dA*d[5mC]*d[5mC]*d[5mC]*dG*d[5mC]*d[5mC]*dG*dG*d[5mC]*dT*d[5mC]*dT*eG*e[5mC]*eT*e[5mC]*eA) [compound 422257]
% Inhibition of human Factor 7 mRNA levels [1]: 65%

407656 (antisense e[5mC]*eA*eG*e[5mC]*eA*dA*dG*dA*dG*dT*dG*d[5mC]*dA*dG*d[5mC]*eT*eT*eG*e[5mC]*e[5mC]) [compound 407656]
% Inhibition (human Factor 7 mRNA) [4]: 43%

422241 (antisense eG*eA*dG*dA*d[5mC]*dA*dA*dT*dG*dG*dT*d[5mC]*dA*dG*dG*eG*e[5mC]*eT*eG*eG) [compound 422241]
% Inhibition of human Factor 7 mRNA levels [2]: 61%

422255 (antisense eA*e[5mC]*d[5mC]*d[5mC]*dG*d[5mC]*d[5mC]*dG*dG*d[5mC]*dT*d[5mC]*dT*dG*d[5mC]*eT*e[5mC]*eA*eT*e[5mC]) [compound 422255]
% Inhibition of human Factor 7 mRNA levels [1]: 30%

422196 (antisense eT*eA*e[5mC]*dT*dG*dA*dG*d[5mC]*dG*d[5mC]*dG*dG*dA*dA*dG*dA*dA*eG*eG*eG) [compound 422196]
% Inhibition (human Factor 7 mRNA) [6]: 2%

416486 (antisense eA*eT*eT*eG*eA*d[5mC]*dA*dA*dG*dG*dG*d[5mC]*dT*dG*dT*eG*eG*e[5mC]*eA*eG) [compound 416486]
% Inhibition of human Factor 7 mRNA levels [5]: 12%

422139 (antisense eT*eT*e[5mC]*eT*eG*d[5mC]*dA*dG*dG*dA*dG*d[5mC]*dG*dG*d[5mC]*e[5mC]*eT*eA*eA*eA) [compound 422139]
% Inhibition of human Factor 7 mRNA levels [3]: 66%

422120 (antisense e[5mC]*eG*e[5mC]*eG*eG*dA*dA*dG*dA*dA*dG*dG*dG*dA*d[5mC]*eG*eG*eA*eA*eG) [compound 422120]
% Inhibition (human Factor 7 mRNA) [6]: 40%

416510 (antisense eG*eA*e[5mC]*eG*eA*dG*dG*d[5mC]*d[5mC]*dT*d[5mC]*dA*dG*dG*dT*eG*eG*eA*e[5mC]*eG) [compound 416510]
% Inhibition of human Factor 7 mRNA levels [5]: 30%

416433 (antisense eA*eG*eA*eA*eA*dT*d[5mC]*d[5mC]*dA*dG*dA*dA*d[5mC]*dA*dG*e[5mC]*eT*eT*e[5mC]*eG) [compound 416433]
% Inhibition of human Factor 7 mRNA levels [5]: 0%

407906 (antisense eA*e[5mC]*e[5mC]*eA*e[5mC]*dG*dG*dG*d[5mC]*dT*dG*dG*dT*dG*d[5mC]*eA*eG*eG*e[5mC]*eG) [compound 407906]
% Inhibition (human Factor 7 mRNA) [4]: 4%

422271 (antisense e[5mC]*eT*dG*dA*dG*d[5mC]*dG*d[5mC]*dG*dG*dA*dA*dG*dA*dA*eG*eG*eG*eA*e[5mC]) [compound 422271]
% Inhibition (human Factor 7 mRNA) [6]: 32%

422094 (antisense e[5mC]*eA*eA*eT*eG*dG*dT*d[5mC]*dA*dG*dG*dG*d[5mC]*dT*dG*eG*eT*eT*eT*eT) [compound 422094]
% Inhibition of human Factor 7 mRNA levels [2]: 48%

407612 (antisense eA*eG*eA*eT*e[5mC]*dA*dG*d[5mC]*dT*dG*dG*dT*d[5mC]*dA*dT*e[5mC]*e[5mC]*eT*eT*eG) [compound 407612]
% Inhibition (human Factor 7 mRNA) [4]: 82%

422212 (antisense eG*eA*e[5mC]*dA*dG*d[5mC]*dA*d[5mC]*dA*d[5mC]*dA*dT*dG*dG*dA*dG*dT*e[5mC]*eA*eG) [compound 422212]
% Inhibition (human Factor 7 mRNA) (Example 6 microwalk, nucleobases 15098 to 15122 of SEQ ID NO: 1, HepB3, lipofectin): 30%

407930 (antisense e[5mC]*eA*eA*eT*eG*dA*dA*dG*dG*d[5mC]*dA*dG*dA*dG*d[5mC]*eA*eG*e[5mC]*eA*eG) [compound 407930]
% Inhibition (human Factor 7 mRNA) [4]: 70%

407628 (antisense eT*eG*eA*eT*eG*dA*d[5mC]*d[5mC]*dT*dG*d[5mC]*dG*d[5mC]*d[5mC]*dA*e[5mC]*e[5mC]*e[5mC]*eG*e[5mC]) [compound 407628]
% Inhibition (human Factor 7 mRNA) [4]: 38%

422265 (antisense eG*e[5mC]*dG*dG*dA*dA*dG*dA*dA*dG*dG*dG*dA*d[5mC]*dG*eG*eA*eA*eG*eG) [compound 422265]
% Inhibition (human Factor 7 mRNA) [6]: 34%

416534 (antisense eA*eT*eG*e[5mC]*eA*d[5mC]*dA*d[5mC]*d[5mC]*dA*dG*dG*dG*d[5mC]*dT*eG*e[5mC]*eT*eG*eG) [compound 416534]
% Inhibition of human Factor 7 mRNA levels [5]: 32%

407660 (antisense eG*e[5mC]*eT*e[5mC]*eT*dG*dA*dA*dG*dT*dA*dG*dA*dT*dG*eA*eT*eG*e[5mC]*e[5mC]) [compound 407660]
% Inhibition (human Factor 7 mRNA) [4]: 16%

407619 (antisense eA*eG*eA*eA*eT*dA*dG*dG*dT*dA*dT*dT*dT*dT*dT*e[5mC]*e[5mC]*eA*e[5mC]*eA) [compound 407619]
% Inhibition (human Factor 7 mRNA) [4]: 64%
